Assay results published in patent US20260250741A1, “DEVELOPMENT OF CELL MEDIUM AND FEED ON MAMMALIAN CELLS” (Evonik Operations GmbH, priority 2023, published 2026).

Tests used:
[1] = tested on: Agarabi CHO (ATCCR CRL-3440™); test: Adaptation of CHO cells with media supplement, batch culture (cell count, viability, protein production); assay type: cell-based, Cricetulus griseus; conditions: 1 mg/L, adapted for 2 weeks, 7 day batch culture, CD FortiCHO + 8 mM L-glutamine
Description: For this experiment, a transgenic CHO cell line, Agarabi CHO (ATCCR CRL-3440™), was adapted for 2 weeks in CD FortiCHO medium supplemented with 8 mM L-glutamine & 1 mg/L human insulin-like growth factor 1 (IGF-1) at 37° C., 8% CO2, at a shaking speed of 130 RPM. Batch culture of 6 flasks was maintained for 7 days where 3 flasks represent technical replicates for the control set (without IGF-1 adaptation) and 3 flasks represent technical replicates for the IGF-1 adapted set. The flasks were seeded with 3E5 viable cells/mL on day 0 and 1 mg/L Insulin Growth Factor was added to the adapted set. Cell count, cell viability, and protein production were measured every 2 days and cell pellets were collected for both control and treatment set on day 7.

[2] = tested on: Agarabi CHO (ATCCR CRL-3440™); test: WGBS differential methylation analysis, IGF-1 adapted vs control; assay type: cell-based, Cricetulus griseus; conditions: FDR corrected p-value <0.05 and methylation change greater than 25% between groups; cell pellets day 7
Description: With a maximum distance between CpG sites of 100 bp, 2048904 genomic regions were found for IGF-1 adapted samples.
Regions with FDR corrected p-value <0.05 and methylation change greater than 25% between groups were determined as differentially methylated regions (DMRs), which was 289 for IGF-1 adapted samples listed in Table 2.

[3] = tested on: Agarabi CHO (ATCC® CRL-3440™); conditions: 120 μM added every 48 hrs, 7 day batch culture, CD FortiCHO + 8 mM L-glutamine
Description: For this experiment, a transgenic CHO cell line, Agarabi CHO (ATCC® CRL-3440™), was grown in CD FortiCHO medium supplemented with 8 mM L-glutamine at 37° C., 8% CO2, at a shaking speed of 130 RPM. Batch culture of 6 flasks was maintained for 7 days where 3 flasks represent technical replicates for the control set and 3 flasks represent technical replicates for the treatment set. The flasks were seeded with 3E5 viable cells/mL on day 0 and to induce oxidative stress, hydrogen peroxide was added every 48 hrs to the treatment set with a final concentration of 120 μM. Cell count, cell viability, and heterologous protein production were measured every 2 days and cell pellets were collected for both control and treatment set on day 7.

[4] = tested on: Agarabi CHO (ATCC® CRL-3440™); conditions: FDR corrected p-value <0.05 and methylation change greater than 25% between groups; cell pellets day 7
Description: Genomic DNA was purified from the collected cell pellets using DNeasy Blood & Tissue Kit (Qiagen) and was quantified using PicroGreen or NanoDrop™ 2000. The genomic DNA (500 ng) from the control and treatment set were used to prepare libraries for Whole Genome Bisulfite Sequencing (WGBS). The sequencing of the libraries was performed by a third party on a NovaSeq platform which generated 125 GB of data per sample.
Raw sequencing data were conducted quality control (fastqc) 1, sequencing adaptors trimming (TrimGalore) 2, and alignment with Bismark3. CMV promoter combined with CHOK1-GS (Cricetulus griseus) genome was used as a reference genome.
Bismark was also used for removing duplicated reads and extracting methylation counts from alignment output.
Since regulated methylation targets are most commonly clustered into short regions, DMRfinder4 was used to perform a modified single-linkage clustering of methylation sites.
Differential methylation analysis was performed using MethylKit5 between the control and treatment groups. Logistic regression was used to determine the differential methylation across all regions, and the sliding linear model (SLIM) 6 method to do FDR correction.

Compound	growth rate compared to control set [1]	heterologous protein productivity compared to control set [1]	viability compared to control set [1]	number of differentially methylated regions (DMRs) [2]	cell viability compared to control set [3]	growth rate compared to control set [3]	heterologous protein productivity compared to control set [3]	number of differentially methylated regions (DMRs) [4]
IGF-1: human insulin-like growth factor 1, media supplement for CHO cells	no significant effect	doubled	no significant effect	289	–	–	–	–
OO [hydrogen peroxide]	–	–	–	–	reduced	reduced	slight increase	122
